The results in this text go back to PubChem BioAssay (NCI).

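48-hour exposure; five concentrations; linearly interpolated endpoints. TGI: concentration producing complete growth inhibition.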

Test systems include MCF7 breast; TK-10 renal; A549 NSCLC; UACC-257 melanoma; SK-MEL-5 melanoma; SF-539 CNS; SR leukemia; IGROV1 ovarian; HCT-15 colon; NCI-H226 lung.
What all share (assay): DTP human tumour cell line panel, 48 h

With `COc1cc2c(/C=C3/C(=O)Nc4ccccc43)c(Cl)n(Cc3ccc(Cl)cc3)c2cc1C`, the TGI (usually the concentration at which net growth stops) in the assay on MCF7 breast was 31.8 µM; with TK-10 renal, 7.67 µM; with A549 NSCLC, 10.6 µM; in the assay with UACC-257 melanoma it was 8.43 µM; in the assay on SK-MEL-5 melanoma, 1.62 µM; in the assay on SF-539 CNS, 0.668 µM. Moreover, the TGI with SR leukemia turned out to be 0.43 µM; with IGROV1 ovarian, 16 µM; in the assay with HCT-15 colon it was 0.969 µM; with NCI-H226 lung, 1.79 µM.
As to `NC(=O)[C@H](Cc1ccc(O)cc1)Nc1c(O)c2c(c(O)c1Cl)C(=O)C=CC2=O`, the TGI in the assay with MCF7 breast was 2.97 µM; with TK-10 renal, more than 6.51 µM; in the assay with A549 NSCLC, more than 10 µM; in the assay with UACC-257 melanoma it was more than 10 µM; in the assay with SK-MEL-5 melanoma, 3.04 µM; in the assay with SF-539 CNS it was 5.28 µM. Besides, the TGI was 5.26 µM in the assay with SR leukemia, 4.66 µM in the assay on IGROV1 ovarian, 3.89 µM with HCT-15 colon and more than 10 µM in the assay with NCI-H226 lung.
In the case of `CCc1nc(N)c2nc(-c3cccs3)oc2n1`, the TGI with MCF7 breast, in the assay with TK-10 renal, in the assay with A549 NSCLC, with UACC-257 melanoma, with SK-MEL-5 melanoma and in the assay with SF-539 CNS was more than 100 µM throughout. For the same compound, the TGI in the assay on SR leukemia, in the assay on IGROV1 ovarian, in the assay with HCT-15 colon and with NCI-H226 lung was more than 100 µM throughout.
